Measured values from paper PMC10536132, “Arginine Gemini-Based Surfactants for Antimicrobial and Antibiofilm Applications: Molecular Interactions, Skin-Related Anti-Enzymatic Activity and Cytotoxicity” (Molecules, 2023).
Marks after values point to notes of the source that are not given here.

Tests used:
[1] = tested on: Pseudomonas aeruginosa PAO1 biofilm; experiment: Biofilm inhibition, crystal violet; format: cell-based; conditions: P. aeruginosa PAO1, 24 h contact, 2–128 μg/mL tested
Description: (§1) The ability of MRSA and P. aeruginosa to form biofilms on propylene surfaces in the presence of bis-Args was determined. The two bacterial cells were kept in contact with the gemini surfactants at different concentrations from 2 to 128 μg/mL for 24 h. Then, the percentage of biofilm inhibition was determined.
(§2) Antibiofilm activity was assessed against biofilm-producing strains of methicillin-resistant Staphylococcus aureus (MRSA) ATCC 43300 and Pseudomonas aeruginosa PAO1. Biofilm inhibition and eradication capacities of the gemini surfactants were evaluated against adherent bacterial biofilms grown in 96-well microtiter plates. Bacteria were grown overnight in tryptic soy agar at 37 °C for 24 h. The bacteria were suspended in lysogeny broth with glucose (1%) at 1.5 × 10^8 CFU/mL.
(§3) Biofilm inhibition procedure: 100 μL of the gemini surfactant at different concentration values was added to each well in a 96-well microplate, then, 100 μL of the diluted bacterial suspension was added to the wells. Two-fold serial dilutions of the gemini surfactants to be tested were used (2–128 μg/mL). Microtiter plates were incubated at 37 °C for 24 h. Spent growth media was then discarded and biofilm was fixed with 150 μL methanol for 10 min. After the plates were air dried, the biofilms were stained with 50 μL of 0.1 of % crystal violet for 25 min. The plates were rinsed with water and then 150 μL of 96% ethanol containing 10% acetic acid was added to all 96-well plates to dissolve the remaining crystal violet-stained biofilm. The absorbance value was recorded at 570 nm. Each assay was performed at least three times and the results were averaged.

[2] = tested on: methicillin-resistant Staphylococcus aureus (MRSA) ATCC 43300 biofilm; experiment: Biofilm inhibition, crystal violet; format: cell-based; conditions: 24 h contact, 2–128 μg/mL tested
Description: as §1, §2, §3

[3] = Apparent pKa by direct titration with NaOH; format: physicochemical; conditions: aqueous solution, concentration above the minimum aggregation concentration; pH at semi-equivalence point
Description: In order to determine the ionization state of these gemini surfactants at the pH used to investigate their biological properties, the apparent acid pKa was determined for each of them. The pKap value has been determined by means of a direct titration with NaOH of an aqueous solution of each compound. The surfactant concentrations used were in all cases higher than the minimum aggregation concentration, thus avoiding possible deviations in the pK value due to the monomer–aggregate balance. The pKap values can be estimated from the pH at the semi-equivalence point that is reached when the molar ratio of protonated and non-protonated species is 1:1. In these conditions, we have that the pH = pKa.
The pKa value of each compound has been determined by means of a direct titration with NaOH of an aqueous solution of each compound. The pH was measured using the pH electrode Thermo Electron Corporation ORION 8103SC and the temperature was controlled by a thermostatic bath, Heto CBN 8-30. The pKa values can be estimated from the pH at the semi-equivalence point, which contains a 1:1 molar ratio of protonated and non-protonated species; at this point, pH = pKap.

[4] = tested on: immortal human keratinocytes (HaCaT); experiment: Cell viability, NRU assay; format: cell-based
Description: (§4) The immortal human keratinocyte (HaCaT) and the squamous cell carcinoma (A431) were obtained from Celltec, University of Barcelona. The cells were grown in DMEM medium (4.5 g/L glucose) supplemented with 10% (v/v) FBS, 2 mM L-glutamine, 100 U/mL of penicillin and 100 μg/mL of streptomycin at 37 °C under 5% CO2. Cells were routinely cultured in 75 cm^2 culture flasks and were trypsinized using trypsin-EDTA when reached approximately 80% of confluence.
(§5) HaCaT cells (1 × 10^5 cells/mL) and A431 cells (5 × 10^4 cells/mL) were grown at the defined densities into the central 60 wells of a 96-well microplate. Cells were incubated for 24 h under 5% CO2 at 37 °C. The medium was then removed and the cells were incubated with the surfactants (100 μL), previously diluted 1:1 (v/v), reaching a concentration of […] in DMEM medium supplemented with 5% FBS using two different colorimetric methods for quantification, as follows.
(§6) The accumulation of the neutral red dye in the lysosomes of viable, undamaged cells constitutes the basis of the neutral red uptake (NRU) assay. After the cells were incubated for 24 h with the corresponding systems at 35.6 µg/mL, the medium was removed and the surfactants´ solutions were incubated for 3 h with the NRU dye solution (50 μg/mL) dissolved in the medium without FBS and phenol red (Lonza). Cells were then washed with sterile PBS, followed by the addition of 100 μL of a solution containing 50% ethanol absolute and 1% acetic acid in distilled water to extract the non-adhered dye. The microplates were then stirred for 5 min at 25 °C to promote the dissolution. Finally, the absorbance of the resulting solutions was measured at λ = 550 nm using a Bio-Rad 550 microplate reader (Hercules, CA, USA).

[5] = Cell viability, NRU assay; format: cell-based, human; conditions: human, HaCaT cells (immortal human keratinocytes); NRU, HaCaT, surfactant in solution at 35.6 µg/mL, 24 h; read-out: cellular viability
Description: as §4, §5, §6

[6] = biological target: porcine pancreatic elastase (Sus scrofa, UniProt P00772); experiment: Elastase inhibitory assay; format: biochemical; conditions: 40 µL of 1000 µg/mL stock; EGCG 250 μM
Chain of porcine pancreatic elastase (P00772 27-266): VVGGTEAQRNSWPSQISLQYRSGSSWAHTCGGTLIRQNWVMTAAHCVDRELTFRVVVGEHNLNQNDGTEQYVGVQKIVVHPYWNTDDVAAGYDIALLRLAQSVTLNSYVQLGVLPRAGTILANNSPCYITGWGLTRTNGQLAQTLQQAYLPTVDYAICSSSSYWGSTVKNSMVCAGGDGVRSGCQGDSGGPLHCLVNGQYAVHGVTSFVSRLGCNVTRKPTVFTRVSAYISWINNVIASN
Summary of the method: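 Porcine pancreatic elastase preincubated 15 min with diluted surfactant samples, then N-succinyl-(Ala)3-p-nitroanilide substrate added in Tris-HCl pH 8.0. Absorbance at 410 nm followed for 2 h; % inhibition from absorbance without versus with sample, in triplicate.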

[7] = parameters: method as in doi:10.1021/la981295l; conditions: cited from earlier work

## CCCCCCCCCCCC(=O)NC(CCCNC(=N)N)C(=O)NCCCNC(=O)C(CCCNC(=N)N)NC(=O)CCCCCCCCCCC (stereo not drawn) [C3(LA)2, Bis (N^α-lauroyl arginine 1,3-propane) diamide]
[1]
  concentration that inhibits biofilm formation: 32 µg/mL
[2]
  concentration that inhibits biofilm formation: 32 µg/mL
[3]
  pKap: 11.4
[4]; Homo sapiens, NRU method, HaCaT, above the highest tested concentration
  IC50: > 35.6 µg/mL
[4]; NRU, HaCaT IC50 versus MIC against the Gram-positive bacteria, E. coli and PA01
  therapeutic index (TI), IC50/MIC ratio: higher than one
[5]
  viability at 24 h, 35.6 µg/mL: 66.2%
[6]
  anti-elastase activity (inhibition): 17%
[7]
  CMC (mM) Conductivity: 0.5 * mM
